# Test results published in patent US20170145002A1, “DEUTERATED ISOXAZOLE DERIVATIVES AND THEIR USE AS METABOTROPIC GLUTAMATE RECEPTOR POTENTIATORS” (AstraZeneca AB, priority 2015, published 2017).
# Tests used:
# [1] = Metabolic stability and intrinsic clearance in human liver microsomes (HLM); type: in vitro ADME; conditions: pooled human liver microsomes, NADPH, 37° C., 0.5-30 minutes; for microsomal CLint at 1 μM: read-out: Human Liver Microsomes Median CLint; for half-life at 1 μM: read-out: Human Liver Microsomes Median t1/2
# Description: This assay was used to measure the in vitro metabolic stability of Compounds A, B, C and D of the application in pooled human liver microsomes. The concentration of parent compound in the reaction system for calculating intrinsic clearance of the compounds and estimating their stability in pooled human liver microsomes was evaluated by LC/MS/MS. 100 μmol/L solutions of each Compound A, B, C and D as well as 100 μmol/L solutions of each positive control compound (i.e., phenacetin, verapamil, diclofenac, imiprimine, benzydamine and metoprolol) were prepared by adding 2 μL of 10 mmol/L stock solution in DMSO to 198 μL of acetonitrile. A 1.1236 mg/mL HLM mixture was prepared by adding 1325 μL of 20 mg/mL HLM to 22260 μL of phosphate buffer. The HLM mixture (222.5 μL of the 1.1236 mg/mL mixture) and 25 μL of a 10 mM NADPH solution were added to the incubation plates. After mixing on a whirly mixer for 10 seconds, the incubation plates were pre-warmed at 37° C. for 8 minutes. The solutions of Compounds A, B, C and D (2.5 μL of the 100 μM solutions prepared before) as well as positive control solutions (2.5 μL of the 100 μM solutions prepared before) were added to the incubation plate. The incubation mixture was mixed on a whirly mixer for 10 seconds and incubation was carried out at 37° C. The reaction was quenched by transferring 20 μL of the incubated mixture at 0.5, 5, 10, 15, 20 and 30 minutes into the quenching plate containing 100 μL of cold acetonitrile. The quenching plates at 4000 rpm were centrifuged for 20 minutes, placed at 4 ° C. for 30 minutes, then re-centrifuged at 4000 rpm for 20 minutes to precipitate protein. The supernatant of each compound (40 μL) was transferred into a 96-well analysis plate. Compounds A, B, C and D were pooled together into one cassette, and pure water (160 μL) was added in each well. All incubations were performed in singlicate. API 4000 (AB sciex, USA) Ultra mass spectrometer was used to carry out the samples analysis in the MRM mode (MS/MS). Peak areas were determined from extracted ion chromatograms. Percentage of parent compound remaining was calculated from peak area of each compound or positive control. The slope value, k, was determined by linear regression of the natural logarithm of percent parent remaining vs. incubation time curve.
# All calculations were carried out using Microsoft Excel. The in vitro half-life (in vitro t1/2) was determined from the slope value, wherein in vitro t1/2=−(0.693/k). Conversion of the in vitrot1/2 (in min) into the in vitro intrinsic clearance (in vitro CLint, in μL/min/mg proteins) was done by using the following equation:
# in vitro CLint=(0.693/t1/2)*(volume of incubation (μL)/amount of proteins (mg)).
# CYP3A4 = CYP3A4 (Homo sapiens, UniProt P08684); assay: CYP isoform phenotyping; type: in vitro ADME; conditions: for Contribution of CYP3A4 to metabolism (in words): assay conditions of Example 8; for CYP 3A4 (% contribution): recombinant human CYP isozymes, parent disappearance
# Description: This assay was used to determine whether Compounds A, B, C and D are metabolised by CYP enzymes.
# Solutions (200 μmol/L) of each Compound A, B, C and D as well as of positive controls (phenacetin for CYP1A2, coumarin for CYP2A6, bupropion for CYP2B6, amitriptyline for CYP2C8, 2C19, 2D6 and 3A4, diclofenac for CYP2C9, chlorzoxazone for CYP2E1, midazolam for CYP3A5) were prepared by adding 4 μL of a 10 mmol/L stock solution in DMSO to 196 μL of acetonitrile. The recombinant human CYP isozymes were thawed on wet ice (over an hour). Mixtures (2670 μL) of CYP isozymes in phosphate buffer containing 112.36 nmol/L CYP1A2, 2A6, 2B6, 2C8, 2C9, 2C19, 2D6, 2E1, 3A4 or 3A5 were prepared. The CYP isozyme mixture (222.5 [EL), 25 μL of 10 mmol/L of NADPH solution and 2.5 μL of vehicle control (2: 98 DMSO/acetonitrile) were added to the blank control plate. The resulting mixture was mixed on a whirly mixer for 10 seconds before a stop solution (1000 μL) with internal standard containing 200 nmol/L of 5,5-diethyl-1,3-diphenyl-2-iminobarbituric acid and 100 nmol/L of tolbutamide was added. The blank control plate was sealed with a lid and mixed on whirly mixer for 120 seconds, and kept on ice prior to centrifugation.
# The standard samples containing 200 pmol/mL hydroxybupropion and 40 pmol/mL 6-hydroxychlorzoxazone were obtained as follows: the CYP isozyme mixture (222.5 μL) and 25 μL of 10 mmol/L NADPH solution were added to separate wells of the blank control plate. 2.5 μL of a 20 nmol/mL hydroxybupropion solution was added to one well and 2.5 μL of a 4 nmol/mL 6-hydroxychlorzoxazone solution was added to the other well. Mixing was conducted on a whirly mixer for 10 seconds. The stop solution with internal standard (1000 μL) was added to both wells. The blank control plate was sealed with a lid and mixing was conducted on a whirly mixer for 120 seconds. The blank control plate was kept on ice prior to centrifugation.
# The CYP isozyme mixtures (222.5 μL) and Compounds A, B, C, D and the positive controls (2.5 μL of each 200 μmol/L solution) were added to the incubation plates. Mixing on a whirly mixer was conducted for 10 seconds. The incubation plate was pre-warmed at 37° C. for 15 minutes. The CYP/compound mixture (27 μL) was transferred from the incubation plate to the 0 minute “Quenching plates” containing 120 μL of the stop solution and 3 μL of a 10 mmol/L NADPH solution. The 0 minute “Quenching plates” was sealed with a lid and kept on ice. Mixing of the 0 minute “Quenching plates” on a whirly mixer was conducted for 120 seconds. The reaction was initiated with the addition of 22 μL of a 10 mmol/L of NADPH solution to the incubation plate. Mixing of the incubation mixture on a whirly mixer was conducted for 10 seconds. The incubation was carried out at 37° C. At 5, 10, 15 and 25 minutes, the incubation mixture was mixed on a whirly mixer for 10 seconds and samples of the incubated mixture (30 μL) were transferred at each time point to wells in a separate “Quenching plate” containing 120 μL of the stop solution, which was sealed with a lid and kept on ice. Mixing on a whirly mixer was conducted for 120 seconds. […]
# All calculations are carried out using Microsoft Excel. Peak areas were determined from extracted ion chromatograms. The percentage of parent remaining was calculated from peak area of Compounds A, B, C, D and positive controls. […]
# Chain of CYP3A4 (P08684 whole entry, canonical isoform): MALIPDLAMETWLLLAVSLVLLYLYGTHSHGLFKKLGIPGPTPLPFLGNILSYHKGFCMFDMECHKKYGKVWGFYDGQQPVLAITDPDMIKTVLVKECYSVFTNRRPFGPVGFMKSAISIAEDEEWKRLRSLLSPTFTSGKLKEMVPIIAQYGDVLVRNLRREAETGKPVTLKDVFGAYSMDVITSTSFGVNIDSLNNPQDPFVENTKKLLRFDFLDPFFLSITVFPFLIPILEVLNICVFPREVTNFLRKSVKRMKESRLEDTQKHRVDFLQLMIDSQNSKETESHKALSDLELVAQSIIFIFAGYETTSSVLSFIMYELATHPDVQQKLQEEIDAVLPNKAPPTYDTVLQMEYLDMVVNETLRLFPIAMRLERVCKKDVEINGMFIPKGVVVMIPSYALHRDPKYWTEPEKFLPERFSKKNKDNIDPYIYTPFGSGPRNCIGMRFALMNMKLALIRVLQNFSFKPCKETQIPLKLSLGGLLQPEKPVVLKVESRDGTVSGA
Compound,microsomal CLint at 1 μM [1] [µL/min/mg],half-life at 1 μM [1] [h],Contribution of CYP3A4 to metabolism (in words) (CYP3A4),CYP 3A4 (% contribution) (CYP3A4) [%]
"[2H]C1([2H])OC([2H])([2H])C([2H])([2H])N(C(=O)c2cc(-c3cc(Cl)c4c(c3)CN([C@@H](C)C3CC3)C4=O)on2)C1([2H])[2H] [Compound A, (S)-7-chloro-2-(1-cyclopropylethyl)-5-(3-(morpholine-4-carbonyl-2,2,3,3,5,5,6,6-d8)isoxazol-5-yl)isoindolin-1-one]",< 3,> 3.85,no measureable contribution,–
"[2H]C1([2H])CN(C(=O)c2cc(-c3cc(Cl)c4c(c3)CN([C@@H](C)C3CC3)C4=O)on2)CC([2H])([2H])O1 [Compound B, (S)-7-chloro-2-(1-cyclopropylethyl)-5-(3-(morpholine-4-carbonyl-2,2,6,6-d4)isoxazol-5-yl)isoindolin-1-one]",9.5,1.22,–,82.3
"[2H]C1([2H])COCC([2H])([2H])N1C(=O)c1cc(-c2cc(Cl)c3c(c2)CN([C@@H](C)C2CC2)C3=O)on1 [Compound C, (S)-7-chloro-2-(1-cyclopropylethyl)-5-(3-(morpholine-4-carbonyl-3,3,5,5-d4)isoxazol-5-yl)isoindolin-1-one]",7,1.66,–,99.7
"C[C@@H](C1CC1)N1Cc2cc(-c3cc(C(=O)N4CCOCC4)no3)cc(Cl)c2C1=O [Compound D, (S)-7-chloro-2-(1-cyclopropylethyl)-5-(3-(morpholine-4-carbonyl)isoxazol-5-yl)isoindolin-1-one, reference compound]",9.5,1.22,metabolized predominately by CYP3A4,100
